Reference: the C3SDB collision cross section collection
Blank lines part the entries; values can stand above or below the compound they belong to.

Tests used:
[1] = instrument: DT, stepped-field
[2] = instrument: DT, single field, calibrated with Agilent tune mix (Agilent)
[3] = instrument: TW, calibrated with polyalanine
[4] = instrument: DT, stepped-field; remark: listed apart in the source

SMILES: NC(CCS)C(=O)O (racemic) [DL-Homocysteine]
- collision cross section (N2) ([1]; [M+H]+): 130.78 Å²

SMILES: C[C@]12CCC(=O)C=C1CC[C@@H]1[C@@H]2[C@@H](O)C[C@@]2(C)[C@H]1CC[C@]2(O)C(=O)CO [Hydrocortisone]
- collision cross section (N2) ([1]; [M+H]+): 189.27 Å²
- collision cross section (N2) ([1]; [M+Na]+): 213.72 Å²
- collision cross section (N2) ([2]; [M-H2O-H]-): 182.99 Å²

SMILES: CCCCCCCCCCCC(=O)O [Lauric acid]
- collision cross section (N2) ([1]; [M-H]-): 154.82 Å²

SMILES: N[C@@H](CC(=O)O)C(=O)O [L-Aspartic acid]
- collision cross section (N2) ([1]; [M-H]-): 120.39 Å²

SMILES: CNC[C@H](O)c1ccc(O)c(O)c1 [Epinephrine]
- collision cross section (N2) ([3]; [M+H]+): 133 Å²
- collision cross section (N2) ([2]; [M+H-H2O]+): 138.3 Å²
- collision cross section (N2) ([2]; [M-H]-): 137.87 Å²

SMILES: Nc1ncnc2c1ncn2[C@@H]1O[C@H](COP(=O)(O)O)[C@@H](O)[C@H]1O [AMP]
- collision cross section (N2) ([3]; [M+H]+): 167 Å²

SMILES: N[C@H]1[C@@H](OP(=O)(O)O)O[C@H](CO)[C@@H](O)[C@@H]1O [Glucosamine 1-phosphate]
- collision cross section (N2) ([3]; [M+H]+): 153 Å²
- collision cross section (N2) ([2]; [M+Na]+): 158.5 Å²

SMILES: CCC(C)[C@H](NC(=O)[C@H](CC(C)C)NC(=O)[C@H](CC(=O)O)NC(=O)[C@@H](N)CCC(=O)O)C(=O)N[C@@H](C)C(=O)N[C@@H](Cc1ccc(O)cc1)C(=O)N[C@@H](CC(C)C)C(=O)N[C@@H](CCCCN)C(=O)O (stereo partly drawn) [EDLIAYLK]
- collision cross section (N2) ([1]; [M+2H]2+): 340.98 Å²
- collision cross section (N2) ([1]; [M+H]+): 307.47 Å²

SMILES: NCCCC[C@H](N)C(=O)O [Lysine]
- collision cross section (N2) ([3]; [M+H]+): 127 Å²

SMILES: N[C@H]1C(O)O[C@H](CO)[C@@H](O)[C@@H]1O (stereo partly drawn) [Glucosamine]
- collision cross section (N2) ([3]; [M+H]+): 135 Å²
- collision cross section (N2) ([2]; [M+H-H2O]+): 132.9 Å²

SMILES: CCC(C)[C@H](N)C(=O)N[C@@H](Cc1ccccc1)C(=O)N[C@H](C(=O)N[C@@H](CCC(N)=O)C(=O)N[C@@H](CCCCN)C(=O)O)C(C)C (stereo partly drawn) [IFVQK]
- collision cross section (N2) ([1]; [M+2H]2+): 285.5 Å²
- collision cross section (N2) ([1]; [M+H]+): 248.88 Å²

Now from value to compound:

- collision cross section (N2) ([3]; [M+H]+): 115 Å²
- collision cross section (N2) ([2]; [M+H]+): 121.9 Å²
- collision cross section (N2) ([2]; [M-H]-): 117.39 Å²
- collision cross section (N2) ([4]; [M+H]+): 126.14 Å²
SMILES: Cc1c[nH]c(=O)[nH]c1=O [Thymine]

- collision cross section (N2) ([1]; [M+2H]2+): 434.32 Å²
- collision cross section (N2) ([1]; [M+3H]3+): 525.02 Å²
SMILES: CCC(C)C(NC(=O)C(Cc1ccc(O)cc1)NC(=O)C1CCCN1C(=O)C(CCCN=C(N)N)NC(=O)C(CCCN=C(N)N)NC(=O)C1CCCN1C(=O)C(CCCCN)NC(=O)C(CC(N)=O)NC(=O)C(CCC(=O)O)NC(=O)C(Cc1ccc(O)cc1)NC(=O)C(CC(C)C)NC(=O)C1CCC(=O)N1)C(=O)NC(CC(C)C)C(=O)O (stereo not drawn) [Neurotensin]

- collision cross section (N2) ([3]; [M+H]+): 167 Å²
SMILES: CSC[C@H]1O[C@@H](n2cnc3c(N)ncnc32)[C@H](O)[C@@H]1O [Methylthioadenosine]

- collision cross section (N2) ([1]; [M+2H]2+): 305.66 Å²
- collision cross section (N2) ([1]; [M+H]+): 275.34 Å²
SMILES: CCC(C)[C@H](NC(=O)CNC(=O)[C@H](C)NC(=O)[C@H](Cc1ccccc1)NC(=O)[C@@H](NC(=O)[C@@H](N)CCSC)C(C)CC)C(=O)N[C@@H](CCCCN)C(=O)O (stereo partly drawn) [MIFAGIK]

- collision cross section (N2) ([3]; [M+H]+): 158 Å²
- collision cross section (N2) ([2]; [M+Na]+): 172.8 Å²
- collision cross section (N2) ([4]; [M+H]+): 166.49 Å²
- collision cross section (N2) ([4]; [M+Na]+): 177.45 Å²
SMILES: O=c1[nH]c(=O)c2ncn([C@@H]3O[C@H](CO)[C@@H](O)[C@H]3O)c2[nH]1 [Xanthosine]

- collision cross section (N2) ([3]; [M+H]+): 124 Å²
- collision cross section (N2) ([2]; [M+H-H2O]+): 135.4 Å²
SMILES: NCCS(=O)(=O)O [Taurine]

- collision cross section (N2) ([3]; [M+H]+): 145 Å²
SMILES: CC(C)(CO)[C@@H](O)C(=O)NCCC(=O)O [Pantothenic acid]

- collision cross section (N2) ([3]; [M+Na]+): 210 Å²
SMILES: OC[C@H]1O[C@H](OC[C@H]2O[C@H](O[C@]3(CO)O[C@H](CO)[C@@H](O)[C@@H]3O)[C@H](O)[C@@H](O)[C@@H]2O)[C@H](O)[C@@H](O)[C@H]1O [raffinose]

- collision cross section (N2) ([3]; [M+H]+): 130 Å²
SMILES: Cc1ncc(CO)c(C(=O)O)c1O [Pyridoxic acid]

- collision cross section (N2) ([3]; [M+Na]+): 168 Å²
SMILES: O=c1ccn([C@@H]2O[C@H](COP(=O)(O)O)[C@@H](O)[C@H]2O)c(=O)[nH]1 [UMP]
